We go through 25 compounds from patent US7514438B2, “Melanin concentrating hormone receptor antagonist” (Amgen, Inc., priority 2003, dated 2009).

For this experiment, the target named is T1, rat MCH 1 receptor (rMCH1R) (Rattus norvegicus, UniProt P97639).
T1 construct: expressed in transfected cells; host or cells: HEK 293 (membranes)
The experiment can be described thus: 125I-MCH ligand binding assay, rMCH. The settings on record: HEK 293 membranes, 0.2 nM 125I native-MCH, read-out: IC50 in the rMCH binding assay. The method, then: Human embryonic kidney cells (293 total) expressing either human, rat, or mouse MCH receptor were harvested from 150 mm culture dishes using PBS. Spinning at 1500 rpm for 2 minutes initially pelleted cells. The resulting pellet was then homogenized in 15 mL ice cold sucrose buffer (25 mM HEPES, 0.3 M sucrose, pH 7.4) with a motorized, glass fitted, Teflon® homogenizer. The homogenate was centrifuged at 48,000×g at 4° C. for 10 minutes, resuspended in 15 mL assay buffer (25 mM HEPES, 10 mM mgCl2, 0.2% BSA, 0.1 mg/mL STI, 0.1 mg/mL Pefabloc®, 1 μM Phosphoramidon, pH 7.4) with a Tissue-Tearor® (Biospec Products) and centrifuged again at 48,000×g for 10 minutes. The pellet was homogenized for a third time in 15 mL assay buffer using the Tissue-Tearor® and again centrifuged at 48,000×g for 10 minutes. The resulting pellet was resuspended in assay buffer at a wet weight concentration of 10-20 mg/mL.
Binding assays were determined as described below using mouse, rat or human MCH 1 receptors (mMCH1R, rMCH1R, and hMCH1R, respectively) expressed in HEK 293; IC50 values were calculated.
Binding assays were performed in 96-well U-bottom plates. Membranes (100 μg tissue) were incubated at 30° C. for 90 minutes in assay buffer with various peptides in the presence of 0.2 nM ^125I native-MCH (Perkin-Elmer Life Sciences, Boston, Mass.) in 100 μL total volume. Non-specific binding was assessed in the presence of 1 μM cold native-MCH. The reaction was terminated by rapid filtration through Unfilter-96 GF/C glass fiber filter plates (FilterMate® 196 Harvester, Packard Instrument Co., Meriden, Conn.) pre-soaked in PBS/0.5% BSA, followed by three washes with 300 μL ice-cold water. Bound radioactivity was determined using a TopCount® microplate scintillation and luminescence counter (Packard Instrument Co., Meriden, Conn.). Nonlinear regression analyses of drug concentration curves were performed using GraphPad Prism® (GraphPad Software, Inc., San Diego, Calif.).

Like-named read-outs stand apart in the source and are kept apart here.

T1 sequence (P97639 whole entry): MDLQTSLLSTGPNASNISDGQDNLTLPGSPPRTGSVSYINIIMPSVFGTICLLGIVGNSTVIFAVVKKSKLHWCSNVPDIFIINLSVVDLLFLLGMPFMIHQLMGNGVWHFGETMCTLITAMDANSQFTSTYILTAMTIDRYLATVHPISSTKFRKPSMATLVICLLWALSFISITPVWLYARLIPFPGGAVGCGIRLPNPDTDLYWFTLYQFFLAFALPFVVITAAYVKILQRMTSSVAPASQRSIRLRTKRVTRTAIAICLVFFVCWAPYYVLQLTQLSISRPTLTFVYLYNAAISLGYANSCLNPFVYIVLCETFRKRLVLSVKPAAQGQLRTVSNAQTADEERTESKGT

Broadly, the IC50 is the concentration that inhibits the measured activity by half. For the compound `CC(C)(C)OC(=O)Cn1nnnc1[C@H](c1ccccc1)N1CCN(C/C=C/c2ccccc2)CC1` (racemic) [Compound 24, (5-{phenyl-[4-(3-phenylallyl)piperazin-1-yl]methyl}tetrazol-1-yl)acetic acid tert-butyl ester], the IC50 (100 μM or less list) is at most 100 µM.

Turning to `C(=C\c1ccccc1)/CN1CCN([C@@H](c2ccccc2)c2nnnn2CCC(c2ccccc2)c2ccccc2)CC1` (racemic) [Compound 27, 1-{[1-(3,3-diphenylpropyl)-1H-tetrazol-5-yl]phenylmethyl}-4-(3-phenylallyl)piperazine], the IC50 (100 μM or less list) was at most 100 µM.

As to `C(=C\c1ccccc1)/CN1CCN([C@@H](c2ccccc2)c2nnnn2C2CCN(Cc3ccccc3)CC2)CC1` (racemic) [Compound 28, 1-{[1-(1-benzylpiperidin-4-yl)-1H-tetrazol-5-yl]phenylmethyl}-4-(3-phenylallyl)piperazine], the IC50 (100 μM or less list) was at most 100 µM.

For `Cc1cccc(C)c1-n1nnnc1[C@H](c1ccccn1)N1CCN(C/C=C/c2ccccc2)CC1` (racemic) [Compound 75, 1-{[1-(2,6-dimethylphenyl)-1H-tetrazol-5-yl]pyridin-2-ylmethyl}-4-(3-phenylallyl)piperazine], the concentration for half-maximal inhibition (IC50) (100 μM or less list) is at most 100 µM.

Take `COc1ccc([C@@H](c2nnnn2-c2c(C)cccc2C)N2CCN(C/C=C/c3ccccc3)CC2)cc1` (racemic) [Compound 122, 1-[[1-(2,6-dimethylphenyl)-1H-tetrazol-5-yl]-(4-methoxyphenyl)methyl]-4-(3-phenylallyl)piperazine]: the concentration for half-maximal inhibition (IC50) (100 μM or less list) was at most 100 µM.

Regarding `Cc1ccc([C@@H](c2nnnn2-c2c(C)cccc2C)N2CCN(C/C=C/c3ccccc3)CC2)cc1C` (racemic) [Compound 123, 1-{(3,4-dimethylphenyl)-[1-(2,6-dimethylphenyl)-1H-tetrazol-5-yl]methyl}-4-(3-phenylallyl)piperazine], the IC50 (100 μM or less list) was at most 100 µM.

For the compound `Cc1cccc(C)c1-n1nnnc1[C@H](c1ccc(F)c(F)c1)N1CCN(C/C=C/c2ccccc2)CC1` (racemic) [Compound 124, 1-{(3,4-difluoraphenyl)-[1-(2,6-dimethylphenyl)-1H-tetrazol-5-yl]methyl}-4-(3-phenylallyl)piperazine], the IC50 (100 μM or less list) was at most 100 µM.

On to `Cc1cccc(C)c1-n1nnnc1[C@H](c1ccc(C(C)C)cc1)N1CCN(C/C=C/c2ccccc2)CC1` (racemic) [Compound 125, 1-[[1-(2,6-dimethylphenyl)-1H-tetrazol-5-yl]-(4-isopropylphenyl)methyl}-4-(3-phenylallyl)piperazine], for which the IC50 (100 μM or less list) is at most 100 µM.

`CSc1ccc([C@@H](c2nnnn2-c2c(C)cccc2C)N2CCN(C/C=C/c3ccccc3)CC2)cc1` (racemic) [Compound 126, 1-[[1-(2,6-dimethylphenyl)-1H-tetrazol-5-yl]-(4-methylsulfanylphenyl)methyl]-4-(3-phenylallyl)piperazine]: the IC50 (100 μM or less list) was at most 100 µM.

As for `CCc1ccc([C@@H](c2nnnn2-c2c(C)cccc2C)N2CCN(C/C=C/c3ccccc3)CC2)cc1` (racemic) [Compound 127, 1-[[1-(2,6-dimethylphenyl)-1H-tetrazol-5-yl]-(4-ethylphenyl)methyl]-4-(3-phenylallyl)piperazine], the half-maximal inhibitory concentration (IC50) (100 μM or less list) is at most 100 µM.

As to `COc1ccc([C@@H](c2nnnn2-c2c(C)cccc2C)N2CCN(C/C=C/c3ccccc3)CC2)cc1OC` (racemic) [Compound 128, 1-{(3,4-dimethoxyphenyl)-[1-(2,6-dimethylphenyl)-1H-tetrazol-5-yl]methyl}-4-(3-phenylallyl)piperazine], the IC50 (100 μM or less list) was at most 100 µM.

As for `COc1cc([C@@H](c2nnnn2-c2c(C)cccc2C)N2CCN(C/C=C/c3ccccc3)CC2)ccc1OCc1ccccc1` (racemic) [Compound 129, 1-{(4-benzyloxy-3-methoxyphenyl)-[1-(2,6-dimethylphenyl)-1H-tetrazol-5-yl]methyl}-4-(3-phenylallyl)piperazine], the IC50 reads like this: (100 nM or less list) at most 0.1 µM; (100 μM or less list) at most 100 µM.

For `Cc1cccc(C)c1-n1nnnc1[C@H](c1ccc(CC(C)C)cc1)N1CCN(C/C=C/c2ccccc2)CC1` (racemic) [Compound 130, 1-[[1-(2,6-dimethylphenyl)-1H-tetrazol-5-yl]-(4-isobutylphenyl)methyl]-4-(3-phenylallyl)piperazine], the IC50 (100 μM or less list) is at most 100 µM.

Consider `CC(=O)Nc1ccc([C@@H](c2nnnn2-c2c(C)cccc2C)N2CCN(C/C=C/c3ccccc3)CC2)cc1` (racemic) [Compound 131, n-(4-{[1-(2,6-dimethylphenyl)-1H-tetrazol-5-yl]-[4-(3-phenylallyl)piperazin-1-yl]methyl}phenyl)acetamide], for which, for the setting “100 μM or less list”, the half-inhibitory concentration (IC50) was at most 100 µM.

Take `CCOc1ccc([C@@H](c2nnnn2-c2c(C)cccc2C)N2CCN(C/C=C/c3ccccc3)CC2)cc1` (racemic) [Compound 136, 1-[[1-(2,6-dimethylphenyl)-1H-tetrazol-5-yl]-(4-ethoxyphenyl)methyl]-4-(3-phenylallyl)piperazine]: the IC50 is at most 0.1 µM (100 nM or less list) and at most 100 µM (100 μM or less list).

On to `Cc1cccc(C)c1-n1nnnc1[C@H](c1cc(Cl)cc(Cl)c1)N1CCN(C/C=C/c2ccccc2)CC1` (racemic) [Compound 137, 1-{(3,5-dichlorophenyl)-[1-(2,6-dimethylphenyl)-1H-tetrazol-5-yl]methyl}-4-(3-phenylallyl)piperazine], for which the concentration for half-maximal inhibition (IC50) by setting is: (100 nM or less list) at most 0.1 µM; (100 μM or less list) at most 100 µM.

On to `Cc1cccc(C)c1-n1nnnc1[C@H](c1cccc([N+](=O)[O-])c1)N1CCN(C/C=C/c2ccccc2)CC1` (racemic) [Compound 138, 1-[[1-(2,6-dimethylphenyl)-1H-tetrazol-5-yl]-(3-nitrophenyl)methyl]-4-(3-phenylallyl)piperazine], for which the IC50 reads like this: (100 nM or less list) at most 0.1 µM; (100 μM or less list) at most 100 µM.

As for `Cc1cccc(C)c1-n1nnnc1[C@H](c1cccc(Br)c1)N1CCN(C/C=C/c2ccccc2)CC1` (racemic) [Compound 139, 1-{(3-bromophenyl)-[1-(2,6-dimethylphenyl)-1H-tetrazol-5-yl]methyl}-4-(3-phenylallyl)piperazine], the IC50 was at most 0.1 µM (100 nM or less list) and at most 100 µM (100 μM or less list).

With `Cc1cccc(C)c1-n1nnnc1[C@H](c1cccc(Cl)c1)N1CCN(C/C=C/c2ccccc2)CC1` (racemic) [Compound 140, 1-{(3-chlorophenyl)-[1-(2,6-dimethylphenyl)-1H-tetrazol-5-yl]methyl}-4-(3-phenylallyl)piperazine], the half-inhibitory concentration (IC50) was at most 0.1 µM (100 nM or less list) and at most 100 µM (100 μM or less list).

With `Cc1cccc(C)c1-n1nnnc1C(c1cccc(C(F)(F)F)c1)N1CCN(CCCc2ccccc2)CC1` (racemic) [Compound 154, 1-[[1-(2,6-dimethylphenyl)-1H-tetrazol-5-yl]-(3-trifluoromethylphenyl)methyl]-4-(3-phenylpropyl)piperazine], the IC50 (100 μM or less list) was at most 100 µM.

Turning to `Cc1cccc(C)c1-n1nnnc1[C@H](c1cccc(C(F)(F)F)c1)N1CCN(Cc2ccc3c(c2)OCO3)CC1` (racemic) [Compound 156, 1-benzo[1,3]dioxol-5-ylmethyl-4-[[1-(2,6-dimethylphenyl)-1H-tetrazol-5-yl]-(3-trifluoromethylphenyl)methyl]piperazine], the IC50 (100 μM or less list) was at most 100 µM.

With `CCN([C@@H]1CCN(Cc2ccccc2)C1)[C@@H](c1cccc(C(F)(F)F)c1)c1nnnn1-c1c(C)cccc1C` (racemic) [Compound 162, (1-benzylpyrrolidin-3-yl)-[[1-(2,6-dimethylphenyl)-1H-tetrazol-5-yl]-(3-trifluoromethylphenyl)methyl]ethylamine], the IC50 (100 μM or less list) is at most 100 µM.

As to `COc1cc(/C=C/CN2CCN([C@@H](c3cccc(C(F)(F)F)c3)c3nnnn3-c3c(C)cccc3C)CC2)ccc1O` (racemic) [Compound 163, 4-(3-{4-[[1-(2,6-dimethylphenyl)-1H-tetrazol-5-yl]-(3-trifluoromethylphenyl)methyl]piperazin-1-yl}propenyl)-2-methoxyphenol], the IC50 reads like this: (100 nM or less list) at most 0.1 µM; (100 μM or less list) at most 100 µM.

Take `Cc1cccc(C)c1-n1nnnc1C1(N2CCN(C/C=C/c3ccccc3)CC2)CCN(C)CC1` [Compound 99, 1-{4-[1-(2,6-dimethylphenyl)-1H-tetrazol-5-yl]-1-methylpiperidin-4-yl}-4-(3-phenylallyl)piperazine]: for the setting “100 μM or less list”, the half-maximal inhibitory concentration (IC50) is at most 100 µM.

Consider `Cc1cccc(C)c1-n1nnnc1[C@H](c1ccc(Cl)cc1)N1CCN(C/C=C/c2ccccc2)CC1` [Compound 118, 1-{(4-chiorophenyl)-[1-(2,6-dimethylphenyl)-1H-tetrazol-5-yl]methyl}-4-(3-phenylallyl)piperazine], for which the 50% inhibitory concentration (IC50) (100 μM or less list) was at most 100 µM.
